Target: protein disulfide isomerase (PDI, PDIA1) (Homo sapiens, UniProt P07237)
Assay: surface plasmon resonance
Assay type: binding

Sequence of protein disulfide isomerase (PDI, PDIA1) (P07237 18-508): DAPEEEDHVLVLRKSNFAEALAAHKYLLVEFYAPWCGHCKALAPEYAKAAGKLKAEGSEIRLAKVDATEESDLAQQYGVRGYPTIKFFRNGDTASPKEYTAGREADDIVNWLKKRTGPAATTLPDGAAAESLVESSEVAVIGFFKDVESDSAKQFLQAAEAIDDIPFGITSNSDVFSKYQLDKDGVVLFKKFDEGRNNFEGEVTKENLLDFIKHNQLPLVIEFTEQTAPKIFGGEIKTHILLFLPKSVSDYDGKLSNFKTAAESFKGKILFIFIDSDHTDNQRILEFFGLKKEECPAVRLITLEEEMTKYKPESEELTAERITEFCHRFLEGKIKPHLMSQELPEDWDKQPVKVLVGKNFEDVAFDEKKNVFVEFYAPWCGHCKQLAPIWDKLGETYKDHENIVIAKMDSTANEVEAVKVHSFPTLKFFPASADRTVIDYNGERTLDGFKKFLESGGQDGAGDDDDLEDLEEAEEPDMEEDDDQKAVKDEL

Cc1c(-c2ccc(O)cc2)n(Cc2ccc(OCCN3CCCCCC3)cc2)c2ccc(O)cc12 [BAZ, bazedoxifene]
Kd: 3.3 nM
